Conditions: mouse, in vivo

In the case of CN[C@@H](C)C(=O)N[C@H](C(=O)N1CCC[C@H]1c1nc(C(=O)c2ccc(F)cc2)cs1)C1CCCCC1 [LCL161], the “body weight in combination treatment cohort” value is reported as “fully recovered following the last treatment”.

Source: patent US20210322545A1 (priority 2016, published 2021)
